In US11844866B2, “Gastroretentive extended release dosage form” (Novelstar Pharmaceuticals, Inc., priority 2020, dated 2023):
Where two headings read alike, the source gives them in different places.

How the values were obtained:
[1] = API stability studies (stress, long term, accelerated; enantiomer interconversion); assay type: physicochemical
From the text: Polymorphism has been observed for Apremilast and seven polymorphic forms (designated A-G) of the active substance were identified.
An amorphous form generally provides better solubility and bioavailability than the crystalline form and may be useful for formulations which can have better solubility, and compressibility etc. which are important for formulation and product manufacturing.

API particle size (d90) = assay type: physicochemical; conditions: API particles
[2] = on storage and in vivo; cited from earlier work
[3] = previously reported dosage form; cited from earlier work
[4] = cited from earlier work
[5] = slightly soluble; cited from earlier work
[6] = Solubility of Tofacitinib citrate in different pH media and water; assay type: physicochemical; conditions: 37 °C, read-out: Solubility @37° C., mg/mL for 6 hours
Method: The active substance is a white to off-white solid, slightly soluble in water (2.9 mg/mL) and non-hygroscopic. Tofacitinib contains two chiral centers at C3 and C4. The active substance is the enantiomer with absolute configuration (R) for both the C-3 and the C-4 positions. The overall stereochemistry of tofacitinib is therefore considered as critical and is assured by the quality of the starting materials and the route of synthesis design.
Polymorphism has been studied for the active substance. The crystalline citrate salt, Form A, has been the sole development form of the active substance used in all toxicology and clinical studies. The solubility Tofacitinib citrate is pH dependent, the solubility is decried with pH increasing. […] The pH dependent solubility can lead to pH-dependent in vivo drug release from sustained release matrices. Drug release varies as a function of movement through segments of the gastrointestinal tract with different pH. […] The Tofacitinib citrate gastric retention drug delivery system that would provide the highest bioavailability are very desirable because the drug active has highest solubility in the stomach.

SMILES: CCOc1cc([C@@H](CS(C)(=O)=O)N2C(=O)c3cccc(NC(C)=O)c3C2=O)ccc1OC [Apremilast Form B]
- stability after exposing to different stress test conditions ([1]; stress test conditions): stable
- particle size d90 (API particle size (d90)): 8 μm

SMILES: CCOc1cc([C@@H](CS(C)(=O)=O)N2C(=O)c3cccc(NC(C)=O)c3C2=O)ccc1OC [Apremilast amorphous]
- stability after 6 months ([1]; stress conditions, long term 25° C./60% RH and accelerated 40° C./75% RH): stable
- particle size d90 (API particle size (d90); listed as Apremilast amorphous form): 22 μm

SMILES: CCOc1cc([C@@H](CS(C)(=O)=O)N2C(=O)c3cccc(NC(C)=O)c3C2=O)ccc1OC [Apremilast, (+) enantiomer of 2-[1-(3-ethoxy-4-methoxyphenyl)-2-methanesulfonylethyl]-4-acetylaminoisoindolin-1,3-dione]
- interconversion of (S)-enantiomer to (R)-enantiomer [2]: no interconversion
- share of absorption taking place in the proximal small bowel [3]: about 93%
- solubility in aqueous buffers ([4]; irrespective of pH range): practically insoluble
- Biopharmaceutical Classification System class ([4]; low solubility and low permeability): BCS Class 4

SMILES: C[C@@H]1CCN(C(=O)CC#N)C[C@@H]1N(C)c1ncnc2[nH]ccc12.O=C(O)CC(O)(CC(=O)O)C(=O)O [Tofacitinib citrate, 3-((3R,4R)-4-methyl-3-(methyl(7H-pyrrolo[2,3-d]pyrimidin-4 yl)amino)piperidin-1-yl)-3-oxopropanenitrile, 2-hydroxypropane-1,2,3-tricarboxylic acid]
- solubility in water [5]: 2900 µg/mL
- solubility at 6 h ([6]; pH 1.18, simulated gastric fluid, thermodynamic from solid, 0.1N HCl, final pH observed 1.18): 27.8 mg/mL
- solubility at 6 h ([6]; pH 4.9, thermodynamic from solid, Water, final pH observed 4.90): 2.9 mg/mL
- solubility at 6 h ([6]; pH 4.5 medium, aqueous buffer, thermodynamic from solid, pH 4.5, final pH observed 4.50): 4.57 mg/mL
- solubility at 6 h ([6]; pH 6.8 medium, aqueous buffer, thermodynamic from solid, pH 6.8, final pH observed 6.78): 2.03 mg/mL
